Source: US20110288154A1, “RNA Interference Mediated Inhibition of Epithelial Sodium Channel (ENaC) Gene Expression Using Short Interfering Nucleic Acid (siNA)” (MERCK & CO., INC., priority 2008, published 2011)
[invAb] = inverted abasic unit; d = 2'-deoxy (DNA); m = 2'-O-methyl; r = 2'-OH (RNA); f = 2'-fluoro

Test system: ENaCα mRNA
Experiment: Screening of ENaCα siNAs in human A549 cells (quantitative RT-PCR)
Assay type: cell-based
Parameters: Percent Reduction of the ENaCα mRNA relative to a non-targeting control siNA (NTC): concentration or dose not given beside the values
Settings: for Avg ENaCα Expression / Mean (level of ENaCα expression normalized to the level of GAPDH) / Percent Reduction of the ENaCα mRNA relative to a non-targeting control siNA (NTC) / Avg GAPDH Expression: human A549 cells, n = 3; for Avg ENaCα Expression: 25 nM siNA with Lipofectamine 2000, harvested 24 hours post-transfection; for Mean (level of ENaCα expression normalized to the level of GAPDH) / Percent Reduction of the ENaCα mRNA relative to a non-targeting control siNA (NTC) / Avg GAPDH Expression: 24 hours post-transfection; for Avg GAPDH Expression: housekeeping gene used for normalisation
Method: siNA constructs (Table 1b) may be tested for efficacy in reducing ENaC RNA expression in, for example, A549 human lung carcinoma cells. A549 (human; ATCC cat# CCL-185) cells were cultured at 37° C. in the presence of 5% CO2 and grown in Ham's F12K medium with 2 mM L-glutamine adjusted to contain 1.5 g/L sodium bicarbonate and supplemented with fetal bovine serum at a final concentration of 10% and 100 U/mL penicillin. The A549 cells were plated approximately 24 hours before transfection in 96-well plates at 7,500 cells/well, 100 μl/well. After 24 hours complexes containing siNA and Lipofectamine 2000 (Invitrogen) were created as follows: a solution of Lipofectamine 2000 in OPTI-MEM was prepared containing Lipofectamine 2000 at a final concentration of 14 μg/ml. In parallel, solutions of the siNAs were prepared in OPTI-MEM at a final concentration of 150 nM. After both solutions were incubated at 20° C. for 20 minutes an equal volume of the siNA solutions and the Lipofectamine 2000 solution were added together for each of the siNAs. The resultant solution has the siNAs at a final concentration of 75 nM and Lipofectamine 2000 at a final concentration of 7 μg/ml. This solution was incubated at 20° C. for 20 minutes. After incubation 50 μl of the solution were added to each of the wells (in triplicate). The final concentration of siNA in each well was 25 nM and the final concentration of Lipofectamine 2000 in each well was 2.33 μg/ml. […] Dose response curves were determined in a similar manner with each concentration being done in triplicate and maintaining a constant amount of Lipofectamine 2000 in each transfection.
RNA was extracted from 96-well plates using the Invitek Invisorb RNA Cell HTS 96 Kit/C (Cat# 70619000) with a slightly modified protocol. The details of the protocol for isolating RNA from each plate are described as follows:
1) Aspirate media with rake 2) Add 150 ul/well Lysis buffer 3) Place on plate shaker for 1 minute 4) Place DNA binding plate on top of 0.5 ml collection plate 5) Pipette 190 ul up and down twice and add to DNA binding plate 6) Cover plate 7) Centrifuge plates 4 minutes at 4000 RPM 8) Discard DNA binding plate 9) Place the RNA binding plate on top of 2 ml collection plate 10) Add 150 ul/well of Binding Buffer R to 0.5 ml collection plate 11) Move contents of 0.5 ml collection plate to RNA binding plate 12) Let incubate for 1 minute 13) Centrifuge plates 4 minutes at 4000 RPM 14) Add 600 ul/well of Wash Buffer R1 to RNA binding plate 15) Centrifuge plates 4 minutes at 4000 RPM 16) Dump wash buffer from 2 ml collection plate 17) Add 400 ul/well of Wash Buffer R2 to RNA binding plate 18) Centrifuge plates 4 minutes at 4000 RPM 19) Add 400 ul/well of Wash Buffer R2 to RNA binding plate 20) Centrifuge plates 10 minutes at 4000 RPM 21) Dump wash buffer from 2 ml collection plate 22) Centrifuge plates 3 minutes at 4000 RPM 23) Discard 2 ml collection plate and place RNA binding plate on to microtiter plate 24) Add 100 ul/well of elution buffer to RNA binding plate 25) Incubate for 2 minutes 26) Seal plate 27) Centrifuge plates 3 minutes at 4000 RPM 28) Discard RNA binding plate 29) Cover microtiter plate for storage in −80 freezer
A series of probes and primers were used to detect the various mRNA transcripts of the genes of ENaCa and GAPDH in mouse, rat, and human cell lines. The assays were performed on an ABI 7500 instrument, according to the manufacturer's instructions. Within each experiment, the baseline was set in the exponential phase of the amplification curve, and based on the intersection point of the baselines with the amplification curve, a Ct value was assigned by the instrument. This Ct value was then assigned a QTY value based on the Standard Curve. The standard curve in the various experiments herein used 1 ng to 300 ng of RNA extracted from the same cell line used for the experimental transfections. […]

| Substance | Avg ENaCα Expression | Mean (level of ENaCα expression normalized to the level of GAPDH) | Percent Reduction of the ENaCα mRNA relative to a non-targeting control siNA (NTC) | Avg GAPDH Expression | IC50 (human cell line, dose response, read-out: Human IC50 (potency of ENaCα mRNA knockdown)) | Human % KD (efficacy of ENaCα mRNA knockdown) (human cell line, summary) |
| --- | --- | --- | --- | --- | --- | --- |
| B AGuGuGGcuGuGccuAcAu TTB / AUGuAGGcAcAGccAcAcuUU (sense AGUGUGGCUGUGCCUACAUTT; antisense AUGUAGGCACAGCCACACUUU; siRNA; sense: DNA at AGT, 2'-fluoro at CU, [invAb] at 5' end, 3' end, backbone not given here; antisense: sugars from the 5' end rrrfmmmfmfmmffmfmffmm, backbone not given here) [Site 1382] | 72.49 | 1.30 | 16.6% | 57.29 | – | – |
| B GcuGuGccuAcAucuucuA TTB / UAGAAGAuGuAGGcAcAGcUU (sense GCUGUGCCUACAUCUUCUATT; antisense UAGAAGAUGUAGGCACAGCUU; siRNA; B caps on sense ends, letter-case modifications not given here, further chemistry not given here) [Site 1388] | 36.49 | 0.30 | 54.1% | 120.24 | 190 pM | 55-80% |
| B GuGGcuGuGccuAcAucuu TTB / AAGAuGuAGGcAcAGccAcUU (sense GUGGCUGUGCCUACAUCUUTT; antisense AAGAUGUAGGCACAGCCACUU; siRNA; sense: DNA at AGT, 2'-fluoro at CU, [invAb] at 5' end, 3' end, backbone not given here; antisense: sugars from the 5' end rrrmfmfmmmfmfmmffmfmm, backbone not given here) [Site 1385] | 90.81 | 0.81 | −23.6% | 119.04 | – | – |
| B cuGuGcAAccAGAAcAAAu TTB / AUUuGuucuGGuuGcAcAGUU (chain 1 CUGUGCAACCAGAACAAAUTT; chain 2 AUUUGUUCUGGUUGCACAGUU; siRNA; chain 1: DNA at AGT, 2'-fluoro at CU, [invAb] at 5' end, 3' end, backbone not given here; chain 2: sugars from the 5' end rrrfmffffmmffmfmfmmmm, backbone not given here) [Site 781] | 61.44 | 0.97 | 37.7% | 66.47 | – | – |
| B GGcuGuGccuAcAucuucu TTB / AGAAGAuGucGGcAcAGccUU (sense GGCUGUGCCUACAUCUUCUTT; antisense AGAAGAUGUCGGCACAGCCUU; siRNA; sense: DNA at AGT, 2'-fluoro at CU, [invAb] at 5' end, 3' end, backbone not given here; antisense: sugars from the 5' end rrrmmmfmffmmfmfmmffmm, backbone not given here) [Site 1387] | 46.10 | 0.43 | 34.2% | 106.19 | – | – |
| B uGGGcAGccAGuGGAGccu TTB / AGGcuccAcuGGcuGcccAUU (sense UGGGCAGCCAGUGGAGCCUTT; antisense AGGCUCCACUGGCUGCCCAUU; siRNA; sense: DNA at AGT, 2'-fluoro at CU, [invAb] at 5' end, 3' end, backbone not given here; antisense: sugars from the 5' end rrrffffmffmmffmfffmmm, backbone not given here) [Site 1751] | 63.35 | 0.49 | 25.4% | 128.83 | – | – |
| B AAccGCAuGAAGAcGGccu TTB / AGGccGucuucAuGcGGuuUU (chain 1 AACCGCAUGAAGACGGCCUTT; chain 2 AGGCCGUCUUCAUGCGGUUUU; siRNA; chain 1: sugars from the 5' end ddffdddfdddddfddfffdd, [invAb] at 5' end, 3' end, backbone not given here; chain 2: sugars from the 5' end rrrffmfffffmfmfmmffmm, backbone not given here) [Site 337] | 67.27 | 1.48 | 5.0% | 49.84 | – | – |
| B uGuccAAccuGGGcAGccA TTB / UGGcuGcccAGGuuGGAcAUU (sense UGUCCAACCUGGGCAGCCATT; antisense UGGCUGCCCAGGUUGGACAUU; siRNA; sense: DNA at AGT, 2'-fluoro at CU, [invAb] at 5' end, 3' end, backbone not given here; antisense: sugars from the 5' end rrrffmfffmmmffmmmfmmm, backbone not given here) [Site 1742] | 58.12 | 0.53 | 19.7% | 109.65 | – | – |
| B AGccAGuGGAGccuGuGGu TTB / ACCAcAGGcuccAcuGGcuUU (sense AGCCAGUGGAGCCUGUGGUTT; antisense ACCACAGGCUCCACUGGCUUU; siRNA; sense: DNA at AGT, 2'-fluoro at CU, [invAb] at 5' end, 3' end, backbone not given here; antisense: sugars from the 5' end rrrmfmmmffffmffmmffmm, backbone not given here) [Site 1756] | 73.20 | 0.71 | −8.2% | 102.64 | – | – |
| B GuccAAccuGGGcAGccAG TTB / CUGGcuGcccAGGuuGGAcUU (sense GUCCAACCUGGGCAGCCAGTT; antisense CUGGCUGCCCAGGUUGGACUU; siRNA; sense: DNA at AGT, 2'-fluoro at CU, [invAb] at 5' end, 3' end, backbone not given here; antisense: sugars from the 5' end rmmmffmfffmmmffmmmfmm, backbone not given here) [Site 1743] | 68.82 | 0.57 | 13.9% | 121.24 | – | – |
| B cuccuGuccAAccuGGGcA TTB / UGCccAGGuuGGAcAGGAGUU (sense CUCCUGUCCAACCUGGGCATT; antisense UGCCCAGGUUGGACAGGAGUU; siRNA; sense: DNA at AGT, 2'-fluoro at CU, [invAb] at 5' end, 3' end, backbone not given here; antisense: sugars from the 5' end rrrffmmmffmmmfmmmmmmm, backbone not given here) [Site 1738] | 77.23 | 0.71 | −7.4% | 108.96 | – | – |
